Assay: molar heat capacity at constant pressure
Conditions: 101.33 kPa, Vacuum adiabatic calorimetry

CCC[n+]1ccn(C)c1.[Br-] [1-methyl-3-propylimidazolium bromide]
molar heat capacity at constant pressure [J/K/mol]
Conditions	Crystal 2	Glass
5 K	0.294	1
5.52 K	0.401	–
5.87 K	0.492	–
6.21 K	0.596	–
6.59 K	0.729	–
6.61 K	–	2.26
6.94 K	–	2.56
6.97 K	0.883	–
7.33 K	–	2.953
7.35 K	1.057	–
7.73 K	1.253	–
7.74 K	–	3.376
8.12 K	1.472	–
8.14 K	–	3.817
8.51 K	1.709	–
8.55 K	–	4.303
8.89 K	1.969	–
8.96 K	–	4.799
9.28 K	2.25	–
9.37 K	–	5.312
9.68 K	2.56	–
9.78 K	–	5.854
10 K	2.83	6.16
10.07 K	2.896	–
10.19 K	–	6.42
10.57 K	3.349	–
10.71 K	–	7.156
11.17 K	3.934	–
11.34 K	–	8.069
11.78 K	4.563	–
11.96 K	–	9.014
12.39 K	5.251	–
12.59 K	–	10.01
12.76 K	–	10.27
13 K	5.972	–
13.23 K	–	11.02
13.27 K	–	11.09
13.62 K	6.746	–
13.86 K	–	12.06
13.9 K	–	12.12
14.24 K	7.548	–
14.5 K	–	13.11
14.53 K	–	13.18
14.85 K	8.382	–
15 K	8.58	13.96
15.17 K	–	14.27
15.58 K	9.404	–
15.96 K	–	15.61
16.42 K	10.63	–
16.9 K	–	17.24
17.26 K	11.9	–
17.83 K	–	18.9
18.09 K	13.21	–
18.77 K	–	20.57
18.93 K	14.56	–
19.7 K	–	22.25
19.77 K	15.94	–
20 K	16.31	22.8
20.91 K	17.83	–
20.95 K	–	24.53
22.33 K	20.27	–
22.51 K	–	27.36
23.77 K	22.77	–
24.09 K	–	30.19
25 K	24.9	31.8
25.2 K	25.25	–
25.66 K	–	32.96
26.63 K	27.75	–
27.23 K	–	35.71
28.07 K	30.25	–
28.81 K	–	38.42
29.52 K	32.71	–
30 K	33.56	40.46
30.4 K	–	41.1
31.17 K	35.56	–
32.13 K	–	43.97
33.03 K	38.66	–
34.01 K	–	46.95
34.89 K	41.68	–
35 K	41.84	48.45
35.9 K	–	49.88
36.76 K	44.57	–
37.79 K	–	52.63
38.63 K	47.38	–
39.67 K	–	55.27
40 K	49.44	55.78
40.49 K	50.15	–
41.76 K	–	58.17
42.5 K	53	–
44.05 K	–	61.22
44.67 K	55.99	–
45 K	56.45	62.48
46.42 K	–	64.28
46.85 K	58.9	–
48.69 K	–	67.11
49.03 K	61.73	–
50 K	62.88	68.62
50.77 K	–	69.55
51.21 K	64.4	–
52.86 K	–	71.87
53.39 K	66.92	–
54.95 K	–	74.14
55.57 K	69.38	–
57.04 K	–	76.42
57.75 K	71.78	–
59.13 K	–	78.63
59.93 K	74.14	–
60 K	74.22	79.52
61.23 K	–	80.83
62.13 K	76.42	–
63.32 K	–	82.92
64.33 K	78.63	–
65.42 K	–	84.99
66.53 K	80.71	–
67.53 K	–	86.98
68.72 K	82.68	–
69.62 K	–	88.87
70 K	83.84	89.28
70.92 K	84.56	–

— the NIST ThermoML archive (doi:10.1016/j.jct.2014.07.018)
